# Laboratory results published in ChEMBL document CHEMBL1135217, “N-aryl 2,6-dimethoxybiphenylalanine analogues as VLA-4 antagonists” (Bioorg Med Chem Lett, 2002).
# pIC50: −log10 of the molar value.
# Tests used:
# Integrin alpha-4/beta-1 [1] = target: T1, Integrin alpha-4/beta-1 (Homo sapiens, UniProt P05556+P13612); assay: In vitro inhibition of [125I]VCAM-Ig binding to very late antigen -4 on jurkat cells.; type: cell-based
# Integrin alpha-4/beta-1 [2] = target: T1, Integrin alpha-4/beta-1; assay: Inhibition of [125I]-VCAM-Ig binding to very late antigen -4 (VLA-4) on Jurkat cells at 4 uM; type: cell-based
# Rattus norvegicus [3] = species on record: Rattus norvegicus; assay: Half-life was determined in Dawley rat; conditions: in vivo
# [4] = Bioavailability in rat (Sprague-Dawley); type: ADME, organism-based; conditions: in vivo
# Rattus norvegicus [5] = species on record: Rattus norvegicus; assay: Volume of distribution at steady state in Dawley rat; conditions: in vivo
# [6] = Clearance in Dawley rat; type: ADME, organism-based; conditions: Sprague-Dawley, plasma, read-out: Clp
# T1 sequence (P05556 whole entry): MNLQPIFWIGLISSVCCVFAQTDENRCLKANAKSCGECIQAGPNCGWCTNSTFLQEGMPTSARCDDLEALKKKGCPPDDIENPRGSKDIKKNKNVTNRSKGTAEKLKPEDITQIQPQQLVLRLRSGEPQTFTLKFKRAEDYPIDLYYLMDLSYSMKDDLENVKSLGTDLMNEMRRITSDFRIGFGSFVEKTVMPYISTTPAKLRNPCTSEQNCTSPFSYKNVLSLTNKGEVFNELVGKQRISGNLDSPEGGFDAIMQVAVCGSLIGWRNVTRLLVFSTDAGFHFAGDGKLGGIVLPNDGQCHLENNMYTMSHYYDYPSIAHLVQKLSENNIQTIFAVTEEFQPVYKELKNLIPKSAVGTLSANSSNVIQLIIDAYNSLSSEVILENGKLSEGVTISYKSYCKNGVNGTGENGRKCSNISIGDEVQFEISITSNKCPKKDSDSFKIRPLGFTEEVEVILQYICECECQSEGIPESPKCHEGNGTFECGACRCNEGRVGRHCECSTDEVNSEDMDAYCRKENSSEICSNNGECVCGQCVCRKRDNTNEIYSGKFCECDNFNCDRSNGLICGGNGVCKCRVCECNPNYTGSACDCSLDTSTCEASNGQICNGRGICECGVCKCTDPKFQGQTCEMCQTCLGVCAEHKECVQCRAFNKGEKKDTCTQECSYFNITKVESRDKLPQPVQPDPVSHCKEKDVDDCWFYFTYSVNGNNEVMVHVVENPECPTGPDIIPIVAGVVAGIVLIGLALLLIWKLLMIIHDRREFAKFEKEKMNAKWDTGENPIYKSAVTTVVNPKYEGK
# T1 sequence (P13612 whole entry): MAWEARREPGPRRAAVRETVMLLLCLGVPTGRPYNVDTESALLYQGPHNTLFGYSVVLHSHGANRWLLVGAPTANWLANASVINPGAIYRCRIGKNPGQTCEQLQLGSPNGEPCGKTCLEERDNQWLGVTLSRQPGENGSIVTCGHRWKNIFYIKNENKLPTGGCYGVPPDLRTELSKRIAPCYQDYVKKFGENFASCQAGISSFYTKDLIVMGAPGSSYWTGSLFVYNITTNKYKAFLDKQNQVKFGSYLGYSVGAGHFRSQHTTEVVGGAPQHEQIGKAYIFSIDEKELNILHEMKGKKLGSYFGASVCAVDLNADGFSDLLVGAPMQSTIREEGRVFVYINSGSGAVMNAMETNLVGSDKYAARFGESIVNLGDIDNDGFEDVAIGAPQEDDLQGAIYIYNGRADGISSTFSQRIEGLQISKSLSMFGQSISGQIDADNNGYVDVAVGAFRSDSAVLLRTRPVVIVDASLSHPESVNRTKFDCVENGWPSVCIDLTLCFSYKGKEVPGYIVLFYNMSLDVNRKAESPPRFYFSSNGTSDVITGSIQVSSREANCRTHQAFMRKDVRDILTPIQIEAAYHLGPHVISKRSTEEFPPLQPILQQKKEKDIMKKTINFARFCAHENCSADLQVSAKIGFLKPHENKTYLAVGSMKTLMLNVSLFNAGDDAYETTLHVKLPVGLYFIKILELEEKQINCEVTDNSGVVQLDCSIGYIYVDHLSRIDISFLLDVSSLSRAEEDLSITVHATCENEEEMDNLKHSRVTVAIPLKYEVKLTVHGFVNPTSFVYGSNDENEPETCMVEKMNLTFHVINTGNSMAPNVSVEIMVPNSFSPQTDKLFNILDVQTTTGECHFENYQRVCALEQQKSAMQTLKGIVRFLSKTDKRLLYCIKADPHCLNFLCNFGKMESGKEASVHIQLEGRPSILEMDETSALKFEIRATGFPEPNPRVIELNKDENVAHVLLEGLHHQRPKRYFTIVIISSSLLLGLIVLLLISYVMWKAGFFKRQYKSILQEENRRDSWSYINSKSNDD
SMILES,pIC50 (Integrin alpha-4/beta-1 [1]),other results
COc1cccc(OC)c1-c1ccc(CC(Nc2ccc(S(=O)(=O)N3CCCC3)cc2)C(=O)O)cc1 (stereo not given),7.04,–
COc1cccc(OC)c1-c1ccc(CC(Nc2cccc(C#N)c2)C(=O)O)cc1 (stereo not given),5.36,–
COc1cccc(OC)c1-c1ccc(CC(Nc2ccc([N+](=O)[O-])cc2)C(=O)O)cc1 (stereo not given),5.28,–
COc1cccc(OC)c1-c1ccc(CC(Nc2ccc(C(=O)N3CCCC3)cn2)C(=O)O)cc1 (stereo not given),7.64,–
COc1cccc(OC)c1-c1ccc(CC(Nc2ccccc2)C(=O)O)cc1 (stereo not given),5.05,–
COc1cccc(OC)c1-c1ccc(CC(Nc2ccc(C(F)(F)F)cc2)C(=O)O)cc1 (stereo not given),–,inhibition (Integrin alpha-4/beta-1 [2]): 45%
COc1cccc(OC)c1-c1ccc(CC(NC(=O)c2ccccc2)C(=O)O)cc1 (stereo not given),8.92,–
COc1cccc(OC)c1-c1ccc(CC(Nc2ccncc2)C(=O)O)cc1 (stereo not given),6.77,–
COc1cccc(OC)c1-c1ccc(CC(Nc2ccc(S(C)(=O)=O)cc2)C(=O)O)cc1 (stereo not given),7.01,–
COc1cccc(OC)c1-c1ccc(CC(Nc2cc(Cl)cc(Cl)c2)C(=O)O)cc1 (stereo not given),5.19,–
COc1cccc(OC)c1-c1ccc(CC(Nc2ccc(C(=O)N3CCCC3)cc2)C(=O)O)cc1 (stereo not given),6.49,–
COc1cccc(OC)c1-c1ccc(CC(Nc2ccccn2)C(=O)O)cc1 (stereo not given),6.21,–
COc1cccc(OC)c1-c1ccc(CC(Nc2cc(C(F)(F)F)cc(C(F)(F)F)c2)C(=O)O)cc1 (stereo not given),–,inhibition (Integrin alpha-4/beta-1 [2]): 46%
COc1cccc(OC)c1-c1ccc(CC(Nc2ccc(C#N)cc2)C(=O)O)cc1 (stereo not given),5.35,–
COc1cccc(OC)c1-c1ccc(CC(Nc2cccc(S(=O)(=O)N3CCCC3)c2)C(=O)O)cc1 (stereo not given),7.92,T1/2 (Rattus norvegicus [3]): 54 min; bioavailability [4]: 24%; Vdss (Rattus norvegicus [5]): 0.55 L/kg; clearance [6]: 73 mL/min/kg
COc1cccc(OC)c1-c1ccc(CC(Nc2ccccc2[N+](=O)[O-])C(=O)O)cc1 (stereo not given),5.45,–
COc1cccc(OC)c1-c1ccc(C[C@H](NC(C)=O)C(=O)O)cc1,7.92,–
COc1cccc(OC)c1-c1ccc(CC(Nc2ccc(S(=O)(=O)c3ccccc3)cc2)C(=O)O)cc1 (stereo not given),6.62,–
CCCS(=O)(=O)c1cc(NC(Cc2ccc(-c3c(OC)cccc3OC)cc2)C(=O)O)ncn1 (stereo not given),9.41,T1/2 (Rattus norvegicus [3]): 48 min; bioavailability [4]: 6%; Vdss (Rattus norvegicus [5]): 0.28 L/kg; clearance [6]: 17 mL/min/kg
COc1cccc(OC)c1-c1ccc(CC(Nc2ccc(C(F)(F)F)cn2)C(=O)O)cc1 (stereo not given),5.50,–
COc1cccc(NC(Cc2ccc(-c3c(OC)cccc3OC)cc2)C(=O)O)n1 (stereo not given),5.38,–
COc1cccc(OC)c1-c1ccc(CC(Nc2cccnc2)C(=O)O)cc1 (stereo not given),6.09,–
